In patent US20250057864A1, “COMPOSITION FOR IMPROVING EXERCISE PERFORMANCE COMPRISING GYPENOSIDE COMPOUND AS ACTIVE INGREDIENT” (BTC CORPORATION, priority 2022, published 2025):

What was measured:
soleus muscle (SOL) = assay: mRNA expression in soleus muscle (SOL), real-time RT-PCR; type: in vivo, ICR mice
Method: (§1) After an acclimatization period of 1 week, healthy animals were selected and divided into 6 groups according to the randomized block design. The animals were divided into (G1) a non-exercise control group, (G2) a non-exercise+7 mg/kg body weight (BW) Example 1 group, (G3) a non-exercise+7 mg/kg BW Example 2 group, (G4) a non-exercise+7 mg/kg BW Example 3 group, (G5) a non-exercise+7 mg/kg BW Example 4 group, (G6) an exercise control group, (G7) an exercise+7 mg/kg BW Example 1 group, (G8) an exercise+7 mg/kg BW Example 2 group, (G9) an exercise+7 mg/kg BW Example 3 group, (G10) an exercise+7 mg/kg BW Example 4 group, and (G11) an exercise+75 mg/kg BW Cr dose group. Each test group consisted of 10 animals.
Total RNA was isolated from the muscle tissue (SOL) collected at the end of the test using a TRizol reagent (Thermo Fisher Scientific), and quantified using a micro-volume spectrophotometer (BioSpec-nano, Shimadzu). RNAs with OD260/280 values above 1.8 were used for experiment. After obtaining cDNA from the total RNA (2 μg) using a HyperScript™ RT master mix kit (GeneAll Biotechnology), real-time PCR was performed using a Rotor-Gene 300 PCR kit (Corbett Research) and a Rotor-Gene™ SYBR Green kit (QIAGEN). Quantitative analysis of the gene expression was performed using the Rotor-Gene 6000 Series System Software program (Corbett Research).
Muscle can be classified into slow muscle and fast muscle depending on the physiological rate of contraction. […] Therefore, the effect of endurance exercise training and the administration of the test substances on the expression of antioxidant-related genes (SOD2, GPx1, UCP2, UCP3), LDH-related genes (ERRα, LDH B, MCT1), mitochondrial synthesis-related genes (Tfam, CPT-1β, mtDNA, NRF1) and energy metabolism-related genes (PGC-1α, GYS, PPARγ, PPARδ) in the soleus muscle, which is a slow muscle, was investigated.

ICR mice [1] = assay: Weight of liver and muscles; type: in vivo; conditions: 6 weeks
Method: as §1
Before sacrificing, the experimental animal was anesthetized using an anesthetic prepared by dilution of tribromoethanol with tertiary amyl alcohol and blood was taken from the eye socket. The blood was placed in a serum-separating tube (Becton Dickinson) and left at room temperature for 30 minutes, centrifuged at 5,000 rpm for 10 minutes to separate the serum, and kept at −70° C. until analysis. After the blood sampling, the experimental animal was sacrificed and the liver and skeletal muscles [quadriceps femoris muscle (QF), gastrocnemius muscle (GA), soleus muscle (SOL), and extensor digitorum longus muscle (EDL)] were extracted. Their weight was measured after rinsing with cold physiological saline and removing excess water with filter paper. A portion of the soleus muscle (SOL) was fixed with 4% paraformaldehyde (PFA) and then embedded in paraffin for histoimmunological staining. Also, total RNA was isolated from a portion of the soleus muscle and subjected to real-time RT-PCR. Proteins were isolated from a portion of the gastrocnemius muscle (GA) and subjected to western blot. The remaining tissue was kept at −70° C. until analysis.
After the end of the test, the weight of the muscles and liver of the experimental animals was measured.
Since the body weight of the experimental animals was decreased due to exercise and the administration of the test substances, the relative weight of the muscles and liver per 100 g of body weight was calculated and shown in Table 23.

ICR mice [2] = assay: Blood biochemistry (serum analysis) at end of test; type: in vivo
Source text: After an acclimatization period of 1 week, healthy animals were selected and divided into 6 groups according to the randomized block design. […] Each test group consisted of 10 animals.
The contents of glucose, triglycerides (TG), total cholesterol (CHOL), LDL-cholesterol (LDL-CHOL), HDL-cholesterol (HDL-CHOL), blood urea nitrogen (BUN) and creatinine (CREA) in the serum, and the activities of creatine kinase (CK), lactate dehydrogenase (LDH), alanine aminotransferase (ALT), aspartate aminotransferase (AST) and alkaline phosphatase (ALP) were measured using a blood biochemistry analyzer (KoneLab 20 XT, Thermo Fisher Scientific).

[3] = SOL muscle, treadmill exercise, 7 mg/kg BW (Cr 75 mg/kg BW), G1 = 1.00
[4] = treadmill exercise, 7 mg/kg BW (Cr 75 mg/kg BW)
[5] = serum, treadmill exercise, 7 mg/kg BW (Cr 75 mg/kg BW), 6 weeks
[6] = SOL muscle, non-exercise, 7 mg/kg BW, G1 = 1.00
[7] = serum, non-exercise, 7 mg/kg BW, 6 weeks

For `CN(CC(=O)O)C(=N)N.O` [Cr, Creatine monohydrate, reference compound], the “mRNA expression CPT-1β” value (soleus muscle (SOL); [3]) was 0.95 ± 0.28^++, the “mRNA expression ERRα” value (soleus muscle (SOL); [3]) was 0.58 ± 0.19^+ and the “mRNA expression GPx1” value (soleus muscle (SOL); [3]) was 1.92 ± 0.29^+. For the same molecule, the “mRNA expression GSY” value (soleus muscle (SOL); [3]) was 0.92 ± 0.31, the “mRNA expression LDH B” value (soleus muscle (SOL); [3]) was 0.35 ± 0.11^+ and the “mRNA expression MCT1” value (soleus muscle (SOL); [3]) was 0.99 ± 0.31^++. The “mRNA expression NRF1” value (soleus muscle (SOL); [3]) was 9.17 ± 2.18, the “mRNA expression PGC1α” value (soleus muscle (SOL); [3]) was 5.09 ± 1.22^+ and the “mRNA expression PPARγ” value (soleus muscle (SOL); [3]) was 0.29 ± 0.05. The “mRNA expression PPARδ” value (soleus muscle (SOL); [3]) was 3.82 ± 0.90^++, the “mRNA expression SOD2” value (soleus muscle (SOL); [3]) was 1.52 ± 0.08^+ and the “mRNA expression Tfam” value (soleus muscle (SOL); [3]) was 1.34 ± 0.07^. The “mRNA expression UCP2” value (soleus muscle (SOL); [3]) was 14.96 ± 1.96^+++, the “mRNA expression UCP3” value (soleus muscle (SOL); [3]) was 0.87 ± 0.22 and the “mRNA expression mtDNA” value (soleus muscle (SOL); [3]) was 1.69 ± 0.20^. For the same molecule, the “Relative weight of extensor digitorum longus muscle (EDL)” value (“Relative weight … (EDL)” for short) (ICR mice [1]; [4]) was 0.059 ± 0.004 g/100 g body weight, the “Relative weight of gastrocnemius muscle (GA)” value (“Relative weight … (GA)” below) (ICR mice [1]; [4]) was 1.078 ± 0.028^ g/100 g body weight and the “Relative weight of quadriceps femoris muscle (QF)” value (from here on “Relative weight … (QF)”) (ICR mice [1]; [4]) was 0.873 g/100 g body weight. For the same molecule, the “Relative weight of soleus muscle (SOL)” value (ICR mice [1]; [4]) was 0.061 g/100 g body weight, the “Weight of extensor digitorum longus muscle (EDL)” value (ICR mice [1]; [4]) was 0.022 ± 0.001 g and the “Weight of gastrocnemius muscle (GA)” value (ICR mice [1]; [4]) was 0.409 ± 0.012 g. The “Weight of quadriceps femoris muscle (QF)” value (ICR mice [1]; [4]) was 0.330 g, the “Weight of soleus muscle (SOL)” value (ICR mice [1]; [4]) was 0.023 g and the BUN (ICR mice [2]; [5]) was 7.84 ± 0.47 mg/dL. For the same molecule, the CK (ICR mice [2]; [5]) was 521.5 U/L, the CREA (ICR mice [2]; [5]) was 0.363 mg/dL and the LDH (ICR mice [2]; [5]) was 1,169 U/L. The Lactate (ICR mice [2]; [5]) was 5.30 ± 0.41^++ μmol/L.

`CC(C)=CCC[C@](C)(O)C1CC[C@]2(C)C1[C@H](O)CC1[C@@]3(C)C[C@@H](O)C(OC4OC(CO)C(O)C(O)C4OC4OC(CO)C(O)C(O)C4O)C(C)(C)C3CC[C@]12C` (some centres unmarked) [Example 1, Gypenoside L] was tested, and the “mRNA expression CPT-1β” value (soleus muscle (SOL); 7 mg/kg) was 0.86 ± 0.04^++, the “mRNA expression ERRα” value (soleus muscle (SOL); 7 mg/kg) was 1.41 ± 0.22 and the “mRNA expression GPx1” value (soleus muscle (SOL); 7 mg/kg) was 3.28 ± 0.36^++. The “mRNA expression GSY” value (soleus muscle (SOL); 7 mg/kg) was 0.27 ± 0.06, the “mRNA expression LDH B” value (soleus muscle (SOL); 7 mg/kg) was 1.26 ± 0.46 and the “mRNA expression MCT1” value (soleus muscle (SOL); 7 mg/kg) was 0.56 ± 0.25^+. The “mRNA expression NRF1” value (soleus muscle (SOL); 7 mg/kg) was 29.20 ± 3.10^++, the “mRNA expression PGC1α” value (soleus muscle (SOL); 7 mg/kg) was 2.73 ± 0.51 and the “mRNA expression PPARγ” value (soleus muscle (SOL); 7 mg/kg) was 5.82 ± 1.27^+. The “mRNA expression PPARδ” value (soleus muscle (SOL); 7 mg/kg) was 2.42 ± 0.45^+, the “mRNA expression SOD2” value (soleus muscle (SOL); 7 mg/kg) was 1.47 ± 0.13^+ and the “mRNA expression Tfam” value (soleus muscle (SOL); 7 mg/kg) was 1.98 ± 0.42^+. The “mRNA expression UCP2” value (soleus muscle (SOL); 7 mg/kg) was 6.91 ± 1.47^++, the “mRNA expression UCP3” value (soleus muscle (SOL); 7 mg/kg) was 0.64 ± 0.10 and the “mRNA expression CPT-1β” value (soleus muscle (SOL); [6]) was 0.34 ± 0.02. The “mRNA expression ERRα” value (soleus muscle (SOL); [6]) was 1.67 ± 0.22, the “mRNA expression GPx1” value (soleus muscle (SOL); [6]) was 0.89 ± 0.10 and the “mRNA expression GSY” value (soleus muscle (SOL); [6]) was 2.60 ± 0.51. For the same molecule, the “mRNA expression LDH B” value (soleus muscle (SOL); [6]) was 1.76 ± 0.49, the “mRNA expression MCT1” value (soleus muscle (SOL); [6]) was 0.41 ± 0.03 and the “mRNA expression NRF1” value (soleus muscle (SOL); [6]) was 15.52 ± 2.59. For the same molecule, the “mRNA expression PGC1α” value (soleus muscle (SOL); [6]) was 0.88 ± 0.08, the “mRNA expression PPARγ” value (soleus muscle (SOL); [6]) was 0.25 ± 0.00 and the “mRNA expression PPARδ” value (soleus muscle (SOL); [6]) was 2.87 ± 0.95. The “mRNA expression SOD2” value (soleus muscle (SOL); [6]) was 1.16 ± 0.03, the “mRNA expression Tfam” value (soleus muscle (SOL); [6]) was 4.74 ± 0.32 and the “mRNA expression UCP2” value (soleus muscle (SOL); [6]) was 1.23 ± 0.05. For the same molecule, the “mRNA expression UCP3” value (soleus muscle (SOL); [6]) was 0.51 ± 0.09, the “mRNA expression mtDNA” value (soleus muscle (SOL); [6]) was 1.29 ± 0.12 and the “mRNA expression mtDNA” value (soleus muscle (SOL); [3]) was 4.66 ± 0.64^++. For the same molecule, the “Relative weight … (EDL)” value (ICR mice [1]; non-exercise, 7 mg/kg BW) was 0.056 ± 0.002 g/100 g body weight, the “Relative weight … (GA)” value (ICR mice [1]; non-exercise, 7 mg/kg BW) was 1.040 ± 0.036^ g/100 g body weight and the “Relative weight … (QF)” value (ICR mice [1]; non-exercise, 7 mg/kg BW) was 0.742 g/100 g body weight. For the same molecule, the “Relative weight of soleus muscle (SOL)” value (ICR mice [1]; non-exercise, 7 mg/kg BW) was 0.056 g/100 g body weight, the “Weight of extensor digitorum longus muscle (EDL)” value (ICR mice [1]; non-exercise, 7 mg/kg BW) was 0.021 ± 0.001 g and the “Weight of gastrocnemius muscle (GA)” value (ICR mice [1]; non-exercise, 7 mg/kg BW) was 0.392 ± 0.010 g. For the same molecule, the “Weight of quadriceps femoris muscle (QF)” value (ICR mice [1]; non-exercise, 7 mg/kg BW) was 0.282 g, the “Weight of soleus muscle (SOL)” value (ICR mice [1]; non-exercise, 7 mg/kg BW) was 0.021 g and the “Relative weight … (EDL)” value (ICR mice [1]; [4]) was 0.056 ± 0.003 g/100 g body weight. The “Relative weight … (GA)” value (ICR mice [1]; [4]) was 1.122 ± 0.032^+ g/100 g body weight, the “Relative weight … (QF)” value (ICR mice [1]; [4]) was 0.827 g/100 g body weight and the “Relative weight of soleus muscle (SOL)” value (ICR mice [1]; [4]) was 0.064 g/100 g body weight. The “Weight of extensor digitorum longus muscle (EDL)” value (ICR mice [1]; [4]) was 0.020 ± 0.001 g, the “Weight of gastrocnemius muscle (GA)” value (ICR mice [1]; [4]) was 0.406 ± 0.012 g and the “Weight of quadriceps femoris muscle (QF)” value (ICR mice [1]; [4]) was 0.296 g. For the same molecule, the “Weight of soleus muscle (SOL)” value (ICR mice [1]; [4]) was 0.023 g, the BUN (ICR mice [2]; 7 mg/kg, 1008 h) was 7.10 ± 0.40 mg/dL and the CK (ICR mice [2]; 7 mg/kg, 1008 h) was 471.7 U/L. The LDH (ICR mice [2]; 7 mg/kg, 1008 h) was 1,198 U/L, the BUN (ICR mice [2]; [7]) was 7.54 ± 0.47 mg/dL and the CK (ICR mice [2]; [7]) was 416.7 U/L. The CREA (ICR mice [2]; [7]) was 0.312 mg/dL, the LDH (ICR mice [2]; [7]) was 894 U/L and the Lactate (ICR mice [2]; [7]) was 5.15 ± 0.30 µmol/L. The CREA (ICR mice [2]; [5]) was 0.348 mg/dL.
